{
  "source": "patent US7820379B2",
  "about": "“Process for high throughput screening of CpG-based immuno-agonist/antagonist” (Coley Pharmaceutical GmbH, priority 2000, dated 2010)",
  "test_system": "monocyte-derived dendritic cells (MDDC)",
  "assay": "Cytokine production by monocyte-derived dendritic cells (ELISA)",
  "type": "cell-based, human",
  "settings": "purified MDDC; ODN 2 μM, LPS 100 ng/ml",
  "experimental": "Human dendritic cells (DC) have been claimed to be responsive to CpG-DNA. […] The converse was true for stimulation of monocyte-derived dendritic cells (MDDC) (FIG. 8 and unpublished data). […] IL-8 and TNF concentration was determined by enzyme-linked immunosorbent assay (ELISA). The CD123+DC response was DNA- and CpG-motif restricted. […] Due to this segregated response we analyzed TLR expression.",
  "data": [
    {"sequence": "TCGTCGTTTTGTCGTTTTGTCGTT [ODN 2006]", "values": [
      {"measurement": "response of MDDC (IL-8, TNF)", "result": "not"}
    ]}
  ]
}
